What was measured:
FKBP12 = FKBP12 (Homo sapiens, UniProt P62942); assay: Ki test procedure: inhibition of peptidyl-prolyl isomerase (rotamase) activity, chymotrypsin-coupled assay; assay type: biochemical; details: substrate N-succinyl-Ala-Ala-Pro-Phe-p-nitroanilide, read-out: Ki (apparent)
Excerpt: The compounds used in the inventive methods and pharmaceutical compositions have an affinity for the inhibition of the prolyl peptidyl cis-trans isomerase activity of FKBP may be measured as an indicator of this affinity.
Inhibition of the peptidyl-prolyl isomerase (rotamase) activity of the compounds used in the inventive methods and pharmaceutical compositions can be evaluated by known methods described in the literature (Harding et al., Nature, […], 341:758-760; Holt et al. J. Am. Chem. Soc., 115:9923-9938). These values are obtained as apparent K1's and are presented for representative compounds in TABLE III.
The cis-trans isomerization of an alanine-proline bond in a model substrate, N-succinyl-Ala-Ala-Pro-Phe-p-nitroanilide, is monitored spectrophotometrically in a chymotrypsin-coupled assay, which releases para-nitroanilide from the trans form of the substrate. The inhibition of this reaction caused by the addition of different concentrations of inhibitor is determined, and the data is analyzed as a change in first-order rate constant as a function of inhibitor concentration to yield the apparerent K1, values. […]
The absorbance at 390 nm versus time is monitored for 90 seconds using a spectrophotometer and the rate constants are determined from the absorbance versus time data files.

C57 black 6 mice [1] = assay: In vivo hair generation test, Experiment A; details: 30 μM topical in 20% propylene glycol, 3 applications, after six weeks
Excerpt: Care was taken not to nick or cause abrasion to the underlaying dermal layers. The animals were in anagen growth phase, as indicated by the pinkish color of the skin. […] Hair growth was quantitated by the percent of shaved area covered by new hair growth during this time period.

C57 black 6 mice [2] = assay: In vivo hair generation test, Experiment B; details: one micromole per milliliter topical, three times per week, 14 days after initiation of treatment
Method: Care was taken not to nick or cause abrasion to the underlying dermal layers. The animals were in a […] growth phase when shaved. […] The animals were treated three times per week, and hair growth was evaluated 14 days after initiation of treatment.

Chain of FKBP12 (P62942 whole entry): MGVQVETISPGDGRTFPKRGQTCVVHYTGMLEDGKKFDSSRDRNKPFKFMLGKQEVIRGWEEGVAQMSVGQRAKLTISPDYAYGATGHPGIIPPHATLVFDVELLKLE

Row | SMILES | Ki (FKBP12) | further results
1 | CCC(C)(C)C(=O)C(=O)N1CSC[C@@H]1C(=O)OCCCc1ccccc1 [Compound 1, 3-phenyl-1-propyl (2S)-1-(3,3-dimethyl-1,2-dioxopentyl)-2-(4-thiazolidine)carboxylate] | 215 nM | 
2 | CCC(C)(C)C(=O)C(=O)N1CSC[C@@H]1C(=O)OCCCc1cccnc1 [Compound 2, 3-(3-pyridyl)-1-propyl (2S)-1-(3,3-dimethyl-1,2-dioxopentyl)-2-(4-thiazolidine) carboxylate] | 638 nM | 
3 | CCC(C)(C)C(=O)C(=O)N1CCC[C@H]1C(=O)OCCCc1cccnc1 [GPI 1046] |  | hair regrowth in the shaved area (C57 black 6 mice [1]): essentially complete hair regrowth
4 | CCC(C)(C)C(=O)C(=O)N1CCS[C@@H]1C(=O)OCCCc1cccnc1 [GPI 1572] |  | hair growth (relative hair growth index, FIG. 5) (C57 black 6 mice [2]): dramatic hair growth

Source: patent US20010041733A1, “Heterocyclic ester and amide hair growth compositions and uses” (GPI NIL Holdings, Inc., priority 1998, published 2001)
